Reference: patent US20030118577A1, “Use of analogues of superoxide dismutase for treating hepatocellular insufficiencies” (priority 2000, published 2003)

How the values were obtained:
[1] = known; cited from earlier work
[2] = system: ischemic lesions of hepatic grafts; experiment: Transaminase release from removed mouse livers in Belzer's preservation fluid; conditions: Belzer's fluid with MnTBAP 10 μg/ml; 4° C.
Description: Ischemia of hepatic grafts after their removal and during their preservation at 4° C. causes hepatocytic lesions.
The intensity of the lesions may be evaluated on the concentration of transaminases in the preservation fluid.
Mouse livers were surgically removed, rinsed with Belzer's preservation fluid supplemented or otherwise with MnTBAP at the concentration of 10 μg/ml. The transaminases were then assayed in the fluid at various times after removal of the organ.

[3] = system: acute hepatic insufficiency induced by acetaminophen; experiment: Histological study of livers after acetaminophen; assay type: in vivo; conditions: mice which received acetaminophen, treated with MnTBAP
Description: In each of the groups, the livers of several animals were removed, in order to carry out a histological study.

O=C(O)c1ccc(-c2c3nc(c(-c4ccc(C(=O)O)cc4)c4ccc([n-]4)c(-c4ccc(C(=O)O)cc4)c4nc(c(-c5ccc(C(=O)O)cc5)c5ccc2[n-]5)C=C4)C=C3)cc1.[Mn+3] [MnTBAP, Mn(III) tetrakis(5,10,15,20-benzoic acid)porphyrin]
catalase activity [1]: known to possess a catalase activity | release of transaminases by the liver into preservation fluid [2]: reduction in the release of transaminases | apoptotic lesions in liver, versus untreated animals [3]: a lot fewer apoptotic lesions
